Laboratory results as given in patent US12246022B2, “Compositions and methods for treating, preventing or reversing age associated inflammation and disorders” (BROWN UNIVERSITY, priority 2019, dated 2025).
Where two headings read alike, the source gives them in different places.

Columns and labels:
[1] = Comparative studies: intracellular drug concentration relative to LINE-1 IC50 and huCSF/Plasma ratio; details: Table 13 Comparative Studies
[2] = tested on: mouse LINE-1; assay: Mouse LINE-1 retrotransposition assay (dual luciferase pYX016 reporter, HeLa cells); type: cell-based
Experimental: Elvucitabine was obtained by custom synthesis. […] HeLa cervical cancer cells were cultivated at 37° C. in a humidified 5% CO2 incubator in Dulbecco's Modified Eagle's Medium (DMEM)-high glucose, with 4500 mg/L glucose, L-glutamine, sodium pyruvate and sodium bicarbonate (Sigma), supplemented with 10% of heat inactivated fetal bovine serum (Thermo Fisher). Assays were performed as described in Xie et al., 2011^151 with several modifications. The reporter assay was performed in 96 well white Optical bottom plates. 6000 HeLa cells were seeded in each well 24 hours prior transfection and compound treatment. All compounds were resuspended in DMSO. Stock solution concentrations varied from 50 mM to 1.25 mM depending of the solubility of the compound. Serial dilutions (1:3) were prepared in DMSO. Ten different concentrations of each compound were tested in triplicate. Medium containing different concentrations of the compounds were prepared by adding 2 μL of the compound dilution to 1 mL of the culture medium. The final concentration of DMSO in the medium was 0.2%. FuGENE® HD transfection reagent (Promega) was used to transfect the plasmid pYX016 into the cells. The transfection mix was prepared in OpiMEM (Thermo Fisher) using a reagent to DNA ratio of 3.5:1 according to manufacturer's instructions. Culture medium was removed from the cells and discarded. The transfection mix (5 μL) was mixed with the compound containing medium (100 μL/well) and this was added onto the cells of each well. Cells were incubated for 48H at 37° C./5% CO2. Luciferase reporter activity was quantified with the Dual-Luciferase® Reporter Assay System (Promega) according to manufacturer's instructions for multiwell plates with the following modification: Cells were lysed directly on the multiwell plate with 30 μL of the passive lysis buffer (PLB) for 20 min at room temperature, with gentle shaking to ensure complete cell lysis (instead of 20 μL of PLB for 15 min). Firefly and Renilla luciferase signals were measured using a SpectraMax i3x Multi-Mode Microplate Reader. […] Relative L1 activity was calculated as Firefly/Renilla *10,000. […] The experiment was performed twice, independently.

[3] = tested on: human LINE-1; assay: Human LINE-1 retrotransposition assay, related experiments with islatravir (pYX017, HeLa cells, Tables 12 and 13); type: cell-based; details: Homo sapiens
Experimental: In related experiments, islatravir and other compounds were tested for inhibition of retrotransposition activity of human LINE-1 in HeLa cells according to the following procedure.
HeLa cervical cancer cells were cultivated at 37° C. in a humidified 5% CO2 incubator in Dulbecco's Modified Eagle's Medium (DMEM)—high glucose, with 4500 mg/L glucose, L-glutamine, sodium pyruvate and sodium bicarbonate (Sigma), supplemented with 10% of heat inactivated fetal bovine serum (Thermo Fisher).
Assays were performed using reporter plasmid pYX017 as described (Xie, et al., 2011) with several modifications. The reporter assay was performed in 96-well white optical bottom plates. HeLa cells were seeded in wells 24 h prior to transfection and compound treatment so that cells were approximately 30% confluent on the day of transfection. Different cell plating densities were tested and a density of 2×10^3 cells was determined to be optimal.
Compounds were resuspended in DMSO. Serial dilutions (1:3) were prepared in DMSO. Medium containing different concentrations of the compounds were prepared by adding 2 μl of the compound dilution to 1 ml of the culture medium. The final concentration of DMSO in the medium was 0.2%.
FuGENE® HD transfection reagent (Promega, E2311, Lot 382574 and Lot 397842) was used to transfect the plasmids into the cells. The transfection reagent: DNA mixture was prepared in OpiMEM (Thermo Fisher) according to manufacturer's instructions. Different ratios of transfection reagent to DNA were tested and a ratio of 3:1 was determined to be optimal. Culture medium was removed from the cells and discarded. The transfection reagent: DNA mixture (5 μl) was mixed with the compound containing medium (100 μl/well) and this was added onto the cells of each well. Cells were incubated at 37° C./5% CO2 for different incubation time. A 72 h incubation time was determined to be optimal.
Luciferase reporter activity was quantified with the Dual-Luciferase® Reporter Assay System (Promega) according to manufacturer's instructions for multiwell plates except that cells were lysed directly on the multiwell plate with 30 μl of the passive lysis buffer (PLB) for 20 min at room temperature, with gentle shaking to ensure complete cell lysis.
Firefly and Renilla luciferase signals were measured using a SpectraMax i3x Multi-Mode Microplate Reader. Integration times of 100 ms and 10 ms were used to measure the Firefly and Renilla signals respectively. Relative L1 activity is calculated as Firefly/Renilla *1000 or Firefly/Renilla *10,000. Dose response inhibition data were fit to a four parameter logistic equation using non-linear regression (using Graphpad Prism 8), to determine IC50 values for each inhibitor.

[4] = pYX016, 48 H post-transfection, read-out: Mouse L1 activity inhibition IC50, Exp. 1
[5] = pYX016, 48 H post-transfection, read-out: Mouse L1 activity inhibition IC50, Exp. 2
[6] = pYX016, 48 H, n = 2, read-out: Mouse L1 activity inhibition IC50, Average
[7] = HeLa, Table 13 Comparative Studies, read-out: Human Line-1 IC50

SMILES | Human Line-1 Intracellular drug conc. (% of IC-50 conc.) [1] | IC50 [2, 4] | IC50 [2, 5] | IC50 [2, 6] | IC50 [3, 7] | IC50 ([3]; HeLa cells, pYX017, 72 h, n = 3, read-out: Human LINE-1 IC50, Average) | IC50 ([3]; HeLa cells, pYX017, 72 h, read-out: Human LINE-1 IC50, Exp.1) | IC50 ([3]; HeLa cells, pYX017, 72 h, read-out: Human LINE-1 IC50, Exp.2)
Nc1nc(=O)n([C@@H]2CS[C@H](CO)O2)cc1F [Emtricitabine] | 67% | 640 nM | 451 nM | 546 nM | 1340 nM | – | – | –
Nc1ccn([C@@H]2CS[C@H](CO)O2)c(=O)n1 [Lamivudine] | 9% | 958 nM | 780 nM | 869 nM | 640 nM | 800 nM | 900 nM | 700 nM
